“Also recorded” adds a separate entry of the source. Read-outs that look alike come from different tables or passages of the source. Blank lines part the entries; values can stand above or below the compound they belong to. Where a SMILES comes first, the peptide text is derived from it. [ ]: non-standard residue; d: D form. The star is where a group is joined. ξ: configuration not given here. F2Pmp = N[C@@H](Cc1ccc(C(F)(F)P(=O)(O)O)cc1)C(=O)O; X2 = O=C(O)COc1ccc(*)cc1; ξDap = NCC(N)C(=O)O
What was measured:
PTP1B = target: T1, PTP1B (Homo sapiens, UniProt P18031); assay: Dynamic ligation screening of nucleophilic fragments with formylglycine peptide 3, PTP1B; type: biochemical; settings: 3 100 μM pre-incubated 5 min, fragment 200 μM, 30 min RT before DiFMUP, triplicates
T1 construct: catalytic domain of human PTP1B (amino acids 1–321); His7 (N, cleaved yes); made in house; host or cells: E. coli Rosetta (DE3)
T1 sequence (P18031 1-321): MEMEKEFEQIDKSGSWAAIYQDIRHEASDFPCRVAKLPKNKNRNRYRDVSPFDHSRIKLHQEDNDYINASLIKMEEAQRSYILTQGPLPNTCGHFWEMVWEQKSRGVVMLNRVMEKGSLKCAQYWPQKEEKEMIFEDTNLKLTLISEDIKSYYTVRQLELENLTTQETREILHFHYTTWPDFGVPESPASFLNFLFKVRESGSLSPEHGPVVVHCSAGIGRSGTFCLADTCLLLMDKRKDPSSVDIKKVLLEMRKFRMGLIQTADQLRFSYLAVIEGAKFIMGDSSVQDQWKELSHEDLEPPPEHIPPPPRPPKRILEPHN
Experimental: (§1) Enzyme activity assays of SHP2 and PTP1B: The catalytic activity of SHP2 catalytic domain and PTP1B were monitored using the fluorogenic substrate DiFMUP (6,8‐difluoro‐4‐methylumbelliferyl phosphate). Phosphatase reactions were performed at room temperature in 384‐well black plate, clear flat bottom, low flange, non‐binding surface (Corning, Cat# 3766) using a final volume of 20 μL and the following assay buffer conditions: 50 mM MOPS, pH=6.5, 200 mM NaCl, 50 μM TCEP, 0.03 % Tween‐20 (freshly added prior to each measurement). Test compounds were dissolved in DMSO or buffer at stock concentrations of 50, 20 or 10 mM and serially diluted. Enzyme (5 nM PTP1B or 2.5 nM SHP2 catalytic domain) and different concentrations of the tested compounds were incubated in buffer for 30–60 min at room temperature. Measurements were performed with a final concentration of 2.5 % DMSO unless stated otherwise at 37 °C and were performed in triplicate. Enzymatic reactions were started by adding DiFMUP (Invitrogen, cat# D6567) concentrations matching the experimentally determined KM values of the enzymes of 67 μM (PTP1B) or 72 μM (SHP2). Samples were excited at a wavelength of 360 nm and emitted fluorescence was recorded at 460 for 10 min using a microplate reader (infinite M1000 Pro, Tecan). Initial slope of fluorescence was determined in triplicate and IC50 values were calculated with GraphPad Prism 5. Determined IC50 values were converted into the corresponding KI values applying the Cheng Prusoff equation KI =IC50 /(1+[S]/KM ).
Dynamic ligation screening of nucleophilic fragments with 3: Under assay conditions described above, PTP1B or SHP2 were pre‐incubated with 3 (100 μM) for 5 min. Subsequently, (200 μM) of the respective fragments were added and the resulting mixtures were incubated for 30 min at RT, prior to DiFMUP addition.

[1] = target: T2, catalytic domain of human PTP1B (Homo sapiens, UniProt P18031); assay: Enzyme activity assay of PTP1B with fluorogenic substrate DiFMUP; type: biochemical; settings: SD; read-out: KI PTP1B
T2 construct: catalytic domain of human PTP1B (amino acids 1–321); His7 (N, cleaved yes); made in house; host or cells: E. coli Rosetta (DE3)
T2 sequence (P18031 1-321): T1 sequence (P18031 1-321)
Experimental: Protein Expression and purification: DNA encoding the catalytic domain of human PTP1B (amino acids 1–321) was subcloned into the pQLinkH vector. The gene encoding the N‐terminal His7‐tagged protein was over‐expressed at 17 °C in E. coli Rosetta (DE3). […] The His7‐tag was cleaved with tobacco etch virus protease at 20 °C prior to the gel‐filtration step. The catalytic domain of human SHP2 (amino acids 225–541) was purified from E. coli B21 (DE3). The overexpressed protein was fused to an N‐terminal His10‐tag. Cells were harvested and resuspended in 25 mM Tris‐HCl (pH=7.5), 50 mM NaCl, 1 % (v/v) Triton X‐100, 10 % (v/v) glycerol, 1 mM DTT. After cell lysis, debris was removed by centrifugation at 12,000 rpm for 30 min. The supernatant was filtered prior to affinity purification with Ni‐NTA agarose (Qiagen). The slurry was washed with 50 mM Tris‐HCl (pH=8.0), 500 mM NaCl supplemented with 25 mM imidazole. Reasonably pure protein was eluted with 200–300 mM imidazole. The purification was completed by size‐exclusion chromatography with a Superdex 75 16/600 column (GE Healthcare) equilibrated with 20 mM HEPES‐NaOH (pH=7.5), 50 mM NaCl, 1 mM DTT.
as §1

[2] = target: T3, catalytic domain of human SHP2 (Homo sapiens, UniProt Q06124); assay: Enzyme activity assay of SHP2 catalytic domain with fluorogenic substrate DiFMUP; type: biochemical; settings: DiFMUP 72 μM (= KM), enzyme 1.5 nM, triplicate; from IC50 by Cheng-Prusoff (IC50/2); read-out: KI SHP2 (Table 2, footnote a)
T3 construct: catalytic domain of human SHP2 (amino acids 225–541); His10 (N); made in house; host or cells: E. coli B21 (DE3)
T3 sequence (Q06124 225-541): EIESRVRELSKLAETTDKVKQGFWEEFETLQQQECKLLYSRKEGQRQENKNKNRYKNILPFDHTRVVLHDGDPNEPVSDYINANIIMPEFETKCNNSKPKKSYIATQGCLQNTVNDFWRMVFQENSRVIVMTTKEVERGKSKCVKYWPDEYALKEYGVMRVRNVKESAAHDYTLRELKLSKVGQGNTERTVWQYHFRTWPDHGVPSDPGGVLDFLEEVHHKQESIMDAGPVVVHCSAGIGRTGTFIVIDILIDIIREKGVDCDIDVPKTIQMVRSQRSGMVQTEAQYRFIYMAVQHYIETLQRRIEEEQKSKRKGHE

[3] = test system: HGF‐induced tyrosine phosphorylation of ERK 1/2 in HeLa cells; assay: Western blot of p-ERK in HGF-stimulated HeLa cells; type: cell-based; settings: 1 h treatment
Experimental: Cellular experiments: HeLa cells were cultivated in DMEM buffer with 10 % FCS in 75 cm^2 cell culture flasks at 37 °C, 5 % CO2. At confluency of about 75 %, cells were seeded in a density of 250,000 cells/mL in 6‐well plates and incubated for 24 h. Subsequently, medium was removed and replaced by DMEM buffer with 0.1 % BSA (1 mL per well) and incubated for another 16 h. Hepatocyte growth factor (HGF, 20 ng/well) and test compounds in different final concentrations (1 μL, in DMSO) were added. Control wells received the same amount of DMSO (final concentration 0.1 %) or no addition. Plates were incubated for 1 h, then washed with cold PBS and shaken with lysis buffer (mPer reagent ThermoScientific # 78501 with 1 mM NaF, 2 mM Na3VO4, 25× protease inhibitor) for 5 min. Cell lysates were transferred to Eppendorf cups and centrifuged at 4 °C with 10,000 g for 10 min. […] The blot was incubated with anti‐phospo‐ERK as primary antibody (Cell Signaling # 9106, dilution 1 : 2000 in TBS‐Tween/ 2 % BSA) overnight at 4 °C, washed 3×5 min with TBS‐Tween, and incubated with anti‐mouse IgG‐hrp as secondary antibody (Santa Cruz # sc2031, 1 : 6000 in TBS‐ Tween/ 2 % BSA, RT, 1.5 h). The blot was again washed 3×5 min with TBS‐Tween and imaged with the ECL system (ThermoScientific # 34080) at Syngene PXi Imager. From the same lysis sample, under the same conditions, ERK 1/2 and β‐tubulin were blotted. For β‐tubulin, the antibody incubation time was adjusted to 2 h at RT.

SHP2 = target: T4, SHP2 (Homo sapiens, UniProt Q06124); assay: Determination of KI using Michaelis-Menten kinetics; type: biochemical
T4 construct: catalytic domain of human SHP2 (amino acids 225–541); His10 (N); made in house; host or cells: E. coli B21 (DE3)
T4 sequence (Q06124 225-541): T3 sequence (Q06124 225-541)
Experimental: as §1
Determination of KI values using Michaelis-Menten kinetics
The assays for the determination of KI values were performed as described under the same conditions as mentioned in the main paper. The initial velocities of the enzymatic reaction inhibited by compound 21 were determined using four different inhibitor concentrations (0, 75, 100 and 150 nM) and four different substrate concentrations (100, 50, 25 and 12.5 µM).
Fluorescence was monitored over 10 min, during which the increase in fluorescence was linear. Initial velocities were calculated and were plotted as a function of the substrate concentration. The inhibition constant KI was determined using Michaelis-Menten kinetics applying GraphPad Prism 9 (Supplementary Figure 31). The obtained data were fitted to three different inhibition models, namely competitive, uncompetitive, and non-competitive inhibition.
The best fit was obtained for the competitive inhibition mode, resulting in the highest correlation […]
Supplementary Figure 31. Michaelis-Menten plots of compound 21 using inhibitor […]
Table 2. Results of Michaelis-Menten plots for different modes of inhibition of compound 21 (competitive, uncompetitive and non-competitive inhibition).
Inhibition model Competitive Uncompetitive Non-competitive
(1 picture or pasted object on this page, not shown here)

Structure (SMILES): Nc1ccc(C(F)(F)F)cc1 [Compound F8, 4‐amino‐phenyl‐trifluoromethane]
Enhancement of inhibition of PTP1B by fragment in combination with peptide 3 (fragment ligation assay) (PTP1B): inactive

Structure (SMILES): CC(=O)N[C@@H](CC(=O)O)C(=O)N[C@@H](C)C(=O)N[C@@H](CC(=O)O)C(=O)N[C@@H](CCC(=O)O)C(=O)N[C@@H](Cc1ccc(C(F)(F)P(=O)(O)O)cc1)C(=O)N[C@@H](CC(C)C)C(N)=O [Compound 2, Ac-DADE-(PDFM-F)-L-NH2, reference compound] (Ac-DADE[F2Pmp]L-NH2)
Ki [1]: 1400 ± 400 nM

Structure (SMILES): O=C(O)Cc1ccc(N/N=C2\C(=O)N(c3ccc([N+](=O)[O-])cc3)N=C2c2ccc([N+](=O)[O-])cc2)cc1 [Compound 21, (Z)‐2‐(4‐(2‐(1,3‐Bis‐(4‐nitrophenyl)‐5‐oxo‐1,5‐dihydro‐4H‐pyrazol‐4‐ylidene)‐hydrazinyl)‐phenyl)‐acetic acid]
Ki [2]: 79 nM
Effect on HGF‐induced tyrosine phosphorylation of ERK 1/2 ([3]; Western blot, DMSO control): decreased
Concentration giving (complete) dephosphorylation of Erk / inhibition of Erk phosphorylation ([3]; HGF 20 ng/well, Western blot p-ERK): 6.25 µM
Ki (SHP2; Michaelis-Menten kinetics at different substrate concentrations, competitive model, read-out: KI SHP2 (Table 2, footnote b) (converted)): 32 nM
Mode of inhibition of SHP2 (SHP2; best fit among competitive, uncompetitive, non-competitive models): competitive inhibitor; also recorded: competitive mode of inhibition
KI by Michaelis-Menten kinetics, uncompetitive model (SHP2; inhibitor 0, 75, 100, 150 nM, DiFMUP 100, 50, 25, 12.5 µM, R2 0.8637): 8.4 nM
Ki (SHP2; inhibitor 0, 75, 100, 150 nM, DiFMUP 100, 50, 25, 12.5 µM, R2 0.8991, read-out: KI by Michaelis-Menten kinetics, non-competitive model): 46.5 nM
Ki (SHP2; inhibitor 0, 75, 100, 150 nM, DiFMUP 100, 50, 25, 12.5 µM, best fit, R2 0.9007, read-out: KI by Michaelis-Menten kinetics, competitive model): 32 nM

Structure (SMILES): O=P(O)(O)C(F)(F)C1CCNCC1 [Compound F9, 4‐piperidinyl‐difluoromethyl phosphonate]
Enhancement of inhibition of PTP1B by fragment in combination with peptide 3 (fragment ligation assay) (PTP1B): inactive

Ki [1]: 213000 ± 21000 nM
Structure (SMILES): CC(=O)N[C@@H](CC(=O)O)C(=O)N[C@@H](C)C(=O)N[C@@H](CC(=O)O)C(=O)N[C@@H](CCC(=O)O)C(=O)NC(CNc1ccc(OCC(=O)O)cc1)C(=O)N[C@@H](CC(C)C)C(N)=O (stereo partly drawn) [Compound 16] (Ac-DADE[ξDap](X2)L-NH2)

Structure (SMILES): Nc1ccccc1 [aniline, reference compound]
Enhancement of inhibition of PTP1B by fragment in combination with peptide 3 (fragment ligation assay) (PTP1B): entirely inactive

— paper PMC9804470, “A Formylglycine‐Peptide for the Site‐Directed Identification of Phosphotyrosine‐Mimetic Fragments” (Chemistry (Weinheim an Der Bergstrasse, Germany), 2022)
